The values below come from patent publication US20230181678A1, “NOVEL ANTIBACTERIAL PEPTIDE OR PEPTIDE ANALOG AND USE THEREOF” (CAMP THERAPEUTICS INC., priority 2020, published 2023).

One experiment deals with E. coli ATCC 25922. Nature of the experiment: MIC assay, sensitizing effect of peptide on antibacterial agents. It is filed as cell-based. Here is the method:
(§1) All MIC assay experiments were performed using the Clinical and Laboratory Standards Institute (CLSI) guidelines (Clinical & Laboratory Standards Institute: CLSI Guidelines, 2017). Bacterial cells cultured overnight were diluted to 0.05 McFarland standard using McFarland (KIT […] PLUS INSTRUMENT, Biomerieux) in Muller Hinton II Broth (cation-adjusted) (Difco). The cells were inoculated at 1.5×10^5 CFU per 200 μL solution of each well in a 96-well plate. The peptide and the antibiotic were prepared using 2-fold serially diluted concentrations. […] Incubation was performed at 37° C. for 18 hours, and then absorbance was measured at 600 nm using an EPOCH2 microplate reader (BioTek, Winooski, USA) to calculate a MIC value. The MIC value was defined as a concentration of the antibiotic or peptide at which bacterial growth was inhibited to a level of lower than 10% growth of the positive control. Fold reduction was calculated using the following expression.
Fold reduction=MIC of antibiotic alone/MIC of antibiotic in presence of sensitizing peptide
Using the same MIC assay method as in Example 1, sensitizing effects of the peptide L9P (CMP1107, 1 ug/ml), which is known as a conventional sensitive AMP, and CMP1401 (1 ug/ml) were compared on existing antibacterial agents against E. coli ATCC 25922 (FIG. 5A).
In addition, MIC screening was used to compare sensitizing effects of the competitive drug SPR741 and the peptide CMP1401 or CMP1501 on the existing antibacterial agents against E. coli ATCC 25922 (FIGS. 5B and 5C). SPR741, which is a previously known polymyxin B (PMB) analog, is a sensitive AMP, and is a drug that has been identified through preclinical experiments to be effective against Gram-negative bacteria in a case of being used together with existing Gram-positive antibiotics.
(§2) ATCC 25922, A.b. ATCC 17978, K.p. ATCC 700603, and P.a. ATCC 27853, or CRE (E.c. NDM-1, K.p. NDM-1, or K.p. KPC) (FIGS. 9 and 10).

In another experiment the test system is P.a. ATCC 27853. Nature of the experiment: MIC assay, sensitizing effect of peptide on rifampicin or colistin. It is filed as cell-based, Pseudomonas aeruginosa. As to conditions: peptide 4 ug/ml. Here is the method:
as §1, §2

A further experiment relates to Ec NDM-1. Nature of the experiment: MIC assay, sensitizing effect of peptide on rifampicin (CRE). The note with it: FIG. 9E; Ec NDM-1 (CRE); peptide 4 ug/ml. It is filed as cell-based, E. coli. How it is done:
as §1, §2

A further experiment concerns Kp NDM-1. The description is as above. The note with it: FIG. 9F; Kp NDM-1 (CRE); peptide 4 ug/ml. Type of experiment: cell-based, Klebsiella pneumoniae. Here is the method: as §1, §2
For the next experiment, the system named is K.p. KPC. In words: MIC assay, sensitizing effect of peptide on rifampicin or colistin (CRE). It is filed as cell-based, Klebsiella pneumoniae. The note with it: peptide 4 ug/ml. Here is the method:
as §1, §2

In experiment [1] the test system is E.c. ATCC 25922, A.b. ATCC 17978, K.p. ATCC 700603, P.a. ATCC 27853, or CRE (E.c. NDM-1, K.p. NDM-1, or K.p. KPC). In words: MIC assay, comparison with L9P on rifampicin or colistin. It is filed as cell-based. As to conditions: FIGS. 9 and 10. How it is done: as §1, §2
Experiment [2] relates to outer membrane of E. coli NDM-1. Nature of the experiment: Enzyme assay, outer membrane leakage (β-lactamase release, CENTA). As to conditions: peptide 0.63 or 1.30 uM, 37° C., 1 h; 200 μM CENTA. It is filed as cell-based. How it is done:
It was observed, through an enzyme assay, whether the sensitizing peptide destroyed the outer and inner membranes of Gram-negative bacteria. In the presence of the sensitizing peptide, it was observed whether in a case where 1.5 mM ONPG was used together therewith, β-galactosidase was released from E. coli ATCC 25922 for the inner membrane, and whether in a case where 200 μM CENTA was used together therewith, β-lactamase was released from E. coli NDM-1 for the outer membrane.
Specifically, to determine leakage of the outer membrane, activity of the β-lactamase released from the outer membrane was evaluated. New Delhi metallo-β-lactamase-1 (NDm-1)-producing E. coli cells were washed three times with DPBS and suspended in the same buffer. The cells were diluted to an OD600 of 0.2 and treated with the peptide at a concentration of 0.63 or 1.30 uM at 37° C. for 1 h. After centrifugation, the supernatant was incubated with 200 μM CENTATM β-lactamase substrate at 37° C. for 1 hour. An optical density was obtained by measuring absorbance of a product of enzyme reaction at 405 nm using a microplate reader (Molecular Devices Co., Menlo Park, Calif.).
The results are illustrated in FIGS. 12A and 12B. The y-axis is absorbance measured at 405 nm, and higher absorbance is observed as a higher amount of β-lactamase is released due to destruction of the membrane.

Another experiment deals with A. baumannii 801. Nature of the experiment: Neutropenic mouse pneumonia model, number of colonies in lungs. It is filed as in vivo. How it is done:
To induce neutropenia in 6-week-old female ICR (CD-1) mice weighing 23 g to 27 g (Orient Bio, Seongnam, Korea), the mice were treated (subcutaneously injected) with 150 mg/kg and 100 mg/kg of cyclophosphamide (CP), respectively, 4 days and 1 day before pneumonia infection. For a mouse model for survival analysis, the mice were infected intranasally with 1×10^8 CFU A. baumannii 801; and for a mouse model for colony number counting, the mice were infected intranasally with 1×10^6 CFU A. baumannii 801.
In addition to the survival rate in the neutropenic mouse pneumoniae mouse model, the number of colonies of A. baumannii 801 was measured in the mouse lungs. The mice were euthanized and lungs were harvested in sterile saline. The lungs were homogenized and serially diluted in sterile saline. The homogenized lungs were applied to tryptic soy agar plates, incubated at 37° C. overnight, and the number of colonies was counted. […] Six mice were used per each group.

For experiment [3], the system named is Acinetobacter baumannii ATCC 17978. Nature of the experiment: MIC assay, sensitizing effect of peptide on antibiotics. It is filed as cell-based.

* marks the point of attachment. Octanoyl = CCCCCCCC(=O)*

Take “OctA-KKALKLAKKPLKLLK-NH2 (Octanoyl-KKALKLAKKPLKLLK-NH2) [CMP1401]”: the “Decreased MIC value of rifampicin at peptide concentration of 4 ug/ml” value in the experiment with E. coli ATCC 25922 (FIG. 9A, E.c. ATCC 25922, peptide 4 ug/ml) is 2 ng/mL; with P.a. ATCC 27853 (FIG. 9D), 0.25 µg/mL; in the experiment on Ec NDM-1 it was 4 ng/mL; in the experiment with Kp NDM-1, 7.8 ng/mL; in the experiment on K.p. KPC (FIG. 9G) it was 7.8 ng/mL; in [3] (FIG. 9B, A.b. ATCC 17978, peptide 4 ug/ml) it was 0.031 µg/mL. Besides, the “Decreased MIC value of colisitin at peptide concentration of 4 ug/ml” value worked out at 7.8 ng/mL in the experiment with E. coli ATCC 25922 (FIG. 10A, E.c. ATCC 25922, peptide 4 ug/ml); 0.016 µg/mL in the experiment with P.a. ATCC 27853 (FIG. 10B); 0.25 µg/mL with K.p. KPC (FIG. 10C). In addition, in the experiment on E. coli ATCC 25922 (FIGS. 5B and 5C), the “sensitizing effect on existing antibacterial agents compared with SPR741” value is “almost the same or much better sensitizing effect”. In addition, the “sensitizing effect compared with SPR741 at half its concentration” value in the experiment on E. coli ATCC 25922 (peptide concentration decreased by half as compared with SPR741, FIG. 5C) is listed as “equal or superior effect”. The “sensitizing effect on existing antibacterial agents compared with L9P” value in the experiment on E. coli ATCC 25922 (peptides 1 ug/ml, FIG. 5A) is recorded as “very good sensitizing effect”. Further, the “sensitizing effect on rifampicin or colistin compared with L9P” value in experiment [1] was “very good sensitizing effect”. In addition, the “destruction of outer membrane (β-lactamase release)” value in [2] is given as “did not destroy these membranes”. Also, in the experiment with A. baumannii 801 (2.5 mg/kg rifampicin + 25 mg/kg CMP1401 vs 2.5 mg/kg rifampicin alone), the “number of colonies fewer than rifampicin alone group” value is given as “about 12 times”. Moreover, in the experiment on A. baumannii 801 (rifampicin and CMP1401 co-administered vs untreated), the “number of colonies fewer than untreated group (control)” value is given as “about 60 times”. In the experiment with A. baumannii 801 (rifampicin and CMP1401 vs rifampicin and SPR741), the “number of colonies fewer than rifampicin and SPR741 group” value is on record as “about 30 times”. Also, the “sensitizing effect for fusidic acid” value in [3] (peptide 0.31 μM, vs fusidic acid alone) is reported as 250 times. Besides, the “sensitizing effect for novobiocin” value in experiment [3] (peptide 0.31 μM, vs novobiocin alone) amounted to 16 times. The “sensitizing effect for rifampicin” value in [3] (peptide 0.31 μM, vs rifampicin alone) is reported as 64 times.
